From article PMC3340406, “Molecular and Functional Characterization of Novel Fructosyltransferases and Invertases from Agave tequilana” (PLoS ONE, 2012)

What was measured:
Assay type in all cases: biochemical
[1] = target: T1, AtqCwinv-1 (Agave tequilana, UniProt I1ZBQ2); test: TLC and HPAEC-PAD, sucrose hydrolysis; settings: 100 mM sucrose, 50 mM sodium acetate pH 4.3, 30 °C; 10 µg affinity purified protein
T1 construct: gene Cwinv1; mature region, signal peptide (24 aa) removed, His-tagged, secreted from Pichia pastoris X-33 (pPICZalphaA); full length 575 aa; about 75 kDa on gel
T1 sequence (I1ZBQ2 25-575): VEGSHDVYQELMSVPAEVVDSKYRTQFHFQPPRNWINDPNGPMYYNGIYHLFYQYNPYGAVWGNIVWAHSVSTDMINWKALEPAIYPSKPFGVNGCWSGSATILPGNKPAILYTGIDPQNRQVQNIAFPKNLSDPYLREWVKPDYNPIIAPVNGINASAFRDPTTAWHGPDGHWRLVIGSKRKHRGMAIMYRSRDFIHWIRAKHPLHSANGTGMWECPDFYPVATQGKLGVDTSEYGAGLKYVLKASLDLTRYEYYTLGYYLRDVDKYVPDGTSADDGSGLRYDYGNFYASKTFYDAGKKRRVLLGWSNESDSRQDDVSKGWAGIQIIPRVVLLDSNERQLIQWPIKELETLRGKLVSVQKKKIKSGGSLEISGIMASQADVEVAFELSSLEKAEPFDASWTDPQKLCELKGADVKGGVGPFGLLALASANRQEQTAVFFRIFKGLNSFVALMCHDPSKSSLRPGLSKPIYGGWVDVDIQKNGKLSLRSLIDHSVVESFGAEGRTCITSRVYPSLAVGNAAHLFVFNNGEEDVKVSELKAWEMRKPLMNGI

[2] = target: T1, AtqCwinv-1; test: HPAEC-PAD, exohydrolase activity; settings: 100 mM 1-kestose, 50 mM sodium acetate pH 4.3, 30 °C; 10 µg affinity purified protein
[3] = target: T2, Atq6G-FFT-1 (Agave tequilana, UniProt I1ZBQ0); test: HPAEC-PAD product analysis; settings: 50 mM 1-kestose (stock contains some sucrose and nystose), 50 mM sodium acetate pH 5.5, 30 °C; 20 µg total protein extract
T2 construct: gene FFT1; mature region, signal peptide (34 aa) removed, His-tagged, secreted from Pichia pastoris X-33 (pPICZalphaA); full length 627 aa; about 80 kDa on gel
T2 sequence (I1ZBQ0 35-627): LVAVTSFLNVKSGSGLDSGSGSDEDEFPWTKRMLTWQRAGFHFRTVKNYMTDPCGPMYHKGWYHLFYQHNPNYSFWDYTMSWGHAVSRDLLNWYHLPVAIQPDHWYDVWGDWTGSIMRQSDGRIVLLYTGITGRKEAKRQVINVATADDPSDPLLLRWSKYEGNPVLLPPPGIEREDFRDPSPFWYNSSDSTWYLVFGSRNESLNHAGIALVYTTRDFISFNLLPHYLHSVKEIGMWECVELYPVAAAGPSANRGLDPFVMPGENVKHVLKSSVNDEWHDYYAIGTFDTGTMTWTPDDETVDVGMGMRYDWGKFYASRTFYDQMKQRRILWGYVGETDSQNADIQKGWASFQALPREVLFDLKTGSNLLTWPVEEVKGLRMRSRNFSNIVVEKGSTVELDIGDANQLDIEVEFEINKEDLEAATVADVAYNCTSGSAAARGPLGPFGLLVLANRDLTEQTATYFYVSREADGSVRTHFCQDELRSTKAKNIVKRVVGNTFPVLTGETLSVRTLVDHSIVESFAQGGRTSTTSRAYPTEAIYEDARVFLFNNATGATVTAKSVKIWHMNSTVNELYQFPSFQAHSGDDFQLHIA

SMILES: OC[C@H]1O[C@@](CO)(O[C@H]2O[C@H](CO)[C@@H](O)[C@H](O)[C@H]2O)[C@@H](O)[C@@H]1O [sucrose]
- TLC and HPAEC-PAD, sucrose hydrolysis [1]: AtqCwinv-1 produced fructose and glucose when incubated with sucrose as the sole substrate

SMILES: OC[C@H]1O[C@@](CO)(OC[C@@]2(O[C@H]3O[C@H](CO)[C@@H](O)[C@H](O)[C@H]3O)O[C@H](CO)[C@@H](O)[C@@H]2O)[C@@H](O)[C@@H]1O [1-kestose]
- HPAEC-PAD, exohydrolase activity [2]: some exohydrolytic activity occurred when sucrose was replaced by 1-kestose as substrate
- HPAEC-PAD product analysis [3]: 1-kestose was used as substrate no neokestose was produced but a tetrasaccharide 4c molecule
